This is an account of results in PubChem BioAssay AID179 (DTP/NCI, 2004).

For the assay, the system named is CEM cells HIV-1 protection, formazan growth assay. Briefly: NCI AIDS Antiviral Assay. To be noted: for IC50: measured here: growth of uninfected CEM cells. The method, boiled down:
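Human CEM cells, uninfected and HIV-1-infected, exposed to five drug concentrations; growth measured by soluble formazan assay and scored as percent protection from infection, with protecting compounds retested.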

The structures appear in SMILES notation. “And” between values parts separate entries of the source, which are not always exact repeats. Identical values can stand only once. The source made the active and inactive calls.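 Rule for the calls: active = compounds giving half or more protection of infected cells from virus-caused growth loss, again on retest; inactive = the rest.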 A value given as a limit tells only on which side of the number the result lay.

The EC50 is the concentration that produces a half-maximal response. In general, IC50 refers to the concentration that gives 50% inhibition. As to `COC(=O)C1=C(c2ccccc2)C(O)(c2ccccc2)C(C(=O)OC)C1=O` (centres undefined), the EC50 was greater than 339 µM and the concentration for half-maximal inhibition (IC50) was 209 µM.
Taken in the same sequence, the figures for `O=c1[nH]c(=S)nc2nc3c4ccc[nH]c4c4ccccc4c3nc12` were greater than 200 µM and 58.9 µM.
Taken in the same sequence, the figures for `COC(=O)c1cccc2cccc(C(=O)Nc3ccc(C)cc3C)c12` were greater than 2.24 µM and greater than 2.24 µM.
`CNC(=O)N(Cc1ccccc1)C[C@@H]1CCCN1C(C)=O`: the EC50 was greater than 200 µM and the half-inhibitory concentration (IC50) is greater than 200 µM.
As to `CCCCCCCCCCNCCSSc1ccccc1`, the EC50 was greater than 200 µM and the IC50 was found to be 4.27 µM.
Taken in the same sequence, the figures for `CC1C2=C(CCCC2=O)N(c2ccc(Cl)cc2)C2=C1C(=O)CCC2` were greater than 100 µM and greater than 100 µM.
Turning to `CN1C(=O)C(N=Nc2ccc([N+](=O)[O-])cc2)SC1=S` (centres undefined), the EC50 is greater than 100 µM; the IC50 was 10.7 µM and > 12.6 µM.
In the case of `COc1ccc(NC(=O)/C(=C/N2C(=O)/C(=C\C(C)=C\c3ccccc3)SC2=S)C(C)=O)cc1`, the EC50 was greater than 200 µM and the IC50 was determined as 13.5 µM.
In the case of `CC(=O)C(CN(CC(C)C)CC(C)C)C(c1ccccc1)c1c(O)c2ccccc2oc1=O` (centres undefined), the EC50 was greater than 28.2 µM and the concentration for half-maximal inhibition (IC50) was greater than 28.2 µM.
`OCC(O)c1cc(I)c(Oc2ccc(O)cc2)c(I)c1` (centres undefined): the EC50 was greater than 200 µM and the half-maximal inhibitory concentration (IC50) was greater than 200 µM.
As to `CC(CC(=O)Nc1ccc(NC(=O)CC(C)N=NC(N)=S)cc1)N=NC(N)=S` (centres undefined), the EC50 is greater than 158 µM and the 50% inhibitory concentration (IC50) turned out to be 102 µM.
Taken in the same sequence, the figures for `O=C1OC2(O)c3ccccc3C(=O)N2N2CCCC12` (centres undefined) were greater than 692 µM and greater than 692 µM.
Turning to `O=C(Nc1ccc(C2=NC3CCCCC3N2)cc1)c1ccc(C(=O)Nc2ccc(C3=NC4CCCCC4N3)cc2)cc1` (centres undefined), the EC50 was greater than 200 µM and the IC50 worked out at 9.33 µM.
In the case of `Nc1ccc2c(c1)[O][Sn]([c]1ccccc1)([c]1ccccc1)[O]C2=O`, the outcome was inactive.
Take `O=C(/C=C\c1ccc(O)c(O)c1)O[C@@H]1C[C@](O)(C(=O)O)C[C@@H](O)[C@H]1O`: the EC50 is greater than 708 µM; the 50% inhibitory concentration (IC50) was 97.7 µM and 355 µM.
For `CO/C(=N/N1CC1C(F)(F)F)c1ccncc1` (centres undefined), the outcome was inactive.
Turning to `COc1cc(C=C2C(=O)NC(=O)NC2=O)cc(OC)c1OC`, the EC50 is greater than 427 µM and the concentration for half-maximal inhibition (IC50) was 257 µM.
As for `CC1(C)C(=O)/C=C\C(=O)C(C)(C)C2=CC=C(O2)C(C)(C)C(=O)/C=C\C(=O)C(C)(C)C2=CC=C1O2`, the result was inactive.
Still for that read-out and setting: the value for `CC(=O)OC12CC(C)C3(O)C4C=C(C)C(=O)[C@@]4(O)CC(CO)=C[C@H]3C1C2(C)C` (some centres undefined) was “active”.
With `CCC(C)N1CN(c2ccccc2)C2(CCN(CCCSc3ccc(F)cc3)CC2)C1=O` (centres undefined), the EC50 was greater than 200 µM and the 50% inhibitory concentration (IC50) was 4.17 µM.
Taken in the same sequence, the figures for `C[C@H]1C2=CC(=O)CC[C@@](C)(O2)[C@H]2CC[C@]3(C)[C@@H](O)CC[C@H]3[C@H]12` were greater than 589 µM and 234 µM.
Taken in the same sequence, the figures for `COc1ccc(C(=O)/C=C/c2ccc(OCC(=N)N)cc2)cc1` were greater than 200 µM and 9.77 µM.
The like results for `O=C(CC1(O)C(=O)Nc2ccc(Br)cc21)c1cccc([N+](=O)[O-])c1` (centres undefined) were, in that order, greater than 174 µM and 93.3 µM.
In the case of `Cc1cccc(N2C(=O)/C(=C/c3ccc(N(CCC#N)CCC#N)cc3C)N=C2c2cc([N+](=O)[O-])ccc2Cl)c1`, the result was inactive.
For the molecule `Cc1cc(C)c(C2=NO[C@H]3c4ccccc4OC[C@@H]23)c(C)c1`, the EC50 is greater than 24.5 µM and the half-inhibitory concentration (IC50) was greater than 24.5 µM.
With `CSc1nc2c(c(=O)n1C)N=C(c1ccccc1)[C@H](C(CC(=O)c1ccccc1)c1ccccc1)C(c1ccccc1)N2` (some centres undefined), the EC50 was greater than 200 µM and the 50% inhibitory concentration (IC50) was 47.9 µM.
Consider `CNc1ccc(C)cc1S(=O)(=O)c1ccc(OC)cc1`, for which the EC50 is greater than 200 µM and the IC50 was found to be 95.5 µM.
As to `CCC1(C)CC(=O)NC1=O` (centres undefined), the EC50 was greater than 37.2 µM and the half-maximal inhibitory concentration (IC50) is greater than 37.2 µM.
`Cc1ccc(N=NC2Sc3nc4ccccc4n3C2=O)cc1` (centres undefined): the EC50 was greater than 200 µM and the IC50 is greater than 200 µM.
For `CC(C)(NC1=NCCO1)c1ccccc1`, the EC50 is greater than 200 µM and the IC50 was greater than 200 µM.
Turning to `O=C1/C(=C/c2ccccc2F)Cc2ccccc21`, the EC50 was greater than 21.9 µM and the half-maximal inhibitory concentration (IC50) was greater than 21.9 µM.
Take `O=C(CCC(=O)C1CCC/C1=N/O)Nc1ccc(Cl)cc1` (centres undefined): the EC50 was greater than 302 µM and the IC50 is 1.12 µM.
Taken in the same sequence, the figures for `CN(C)CCNC(=O)Cn1ccc(=O)c2cc([N+](=O)[O-])ccc21` were greater than 200 µM and greater than 200 µM.
Taken in the same sequence, the figures for `CCCCCCNC(=O)/C(=C\c1ccc(Cl)cc1Cl)NC(=O)c1ccccc1` were greater than 200 µM and greater than 200 µM.
`COc1cc2nc(NCCCCCNC(=O)c3ccco3)nc(N)c2cc1OC`: the EC50 is greater than 575 µM and the half-maximal inhibitory concentration (IC50) is 35.5 µM.
On to `C=CCC(/C=C\CC)(C(=O)O)C(=O)O`, for which the EC50 was greater than 661 µM and the IC50 was greater than 661 µM.
Take `CNC(=O)OCc1cc(C(=O)NCCCNCCCNC(=O)c2ccc([N+](=O)[O-])c(COC(=O)NC)c2)ccc1[N+](=O)[O-]`: the result was inactive.
For the molecule `C=CCC(=S)NCCc1c[nH]c2ccccc12`, the EC50 was greater than 200 µM and the IC50 came to 120 µM.
Consider `O=c1c2ccccc2c(=O)c2c1cc(Cl)c1[nH]c3c([nH]c12)c(Cl)cc1c(=O)c2ccccc2c(=O)c13`, for which the EC50 was greater than 7.41 µM and the 50% inhibitory concentration (IC50) is greater than 7.41 µM.
With `Cc1c(C)c(C)c(Cn2[nH]c(=O)n(C)c2=O)c(C)c1C`, the EC50 was greater than 200 µM and the IC50 is greater than 200 µM.
On to `O=c1[nH]nc(-c2ccccc2)n1/N=C/c1ccc([N+](=O)[O-])cc1`, for which the EC50 was greater than 200 µM and the IC50 is greater than 200 µM.
As to `Nc1nc(N)c(N=Nc2ccc(S(=O)(=O)NC(=O)c3ccccc3)cc2)c(=O)[nH]1`, the EC50 is greater than 200 µM and the half-maximal inhibitory concentration (IC50) was greater than 200 µM.
Consider `CC(=O)OCCn1c(Cc2ccc([N+](=O)[O-])cc2)nn(C(C)=O)c1=O`, for which the EC50 is greater than 200 µM and the IC50 is greater than 200 µM.
Turning to `CN1CC[C@]2(C)c3cc(O)ccc3CC3CCCC1C32C` (some centres undefined), the result was inactive.
Turning to `Cc1cc(=O)[nH]c(NN2C(Cl)C(=O)C2c2ccccc2O)n1` (centres undefined), the EC50 was greater than 58.9 µM and the concentration for half-maximal inhibition (IC50) came out at 3.63 µM.
As for `CCOC(=O)N/N=C/c1cccs1`, the EC50 is greater than 200 µM and the IC50 was greater than 200 µM.
Take `CCc1cc(Cc2ccc(C)c(NC(=O)C(=O)C3C(=O)NC(=O)NC3=O)c2CC)cc(C)c1NC(=O)C(=O)C1C(=O)NC(=O)NC1=O`: the EC50 was greater than 77.6 µM and the IC50 is greater than 77.6 µM.
For the molecule `Cc1cccc(N=NC(=O)NNc2cccc(C)c2C)c1C`, the EC50 was greater than 200 µM and the IC50 was 70.8 µM.
With `C[C@@H]1C[C@H]2[C@@H]3CCC4=CC(=O)C=C[C@]4(C)[C@@]3(F)[C@@H](O)C[C@]2(C)C1=O`, the result was inactive.
For the molecule `Cc1[nH]nc2c1NC(=O)OC(C)(C)C2`, the EC50 was greater than 479 µM and the concentration for half-maximal inhibition (IC50) is greater than 479 µM.
As for `O=C1c2c(/C=C/c3ccc(Cl)c(Cl)c3)nc3ccccc3c2C(=O)N1CCN1CCCCC1`, the EC50 was greater than 7.59 µM and the 50% inhibitory concentration (IC50) is greater than 7.59 µM.
As to `COc1ccc2c(c1)CCC1C=NOC21` (centres undefined), the EC50 was greater than 245 µM and the 50% inhibitory concentration (IC50) is 107 µM.
The like results for `CCOC(=O)N1CCC2C(=C(C)C(C)C3=C2C(=O)c2ccccc2C3=O)C1` (centres undefined) were, in that order, greater than 100 µM and greater than 100 µM.
With `Clc1ncnc2c1ncn2CCCCCCCCCCCCn1cnc2c(Cl)ncnc21`, the outcome was inactive.
On to `Nc1ncc(N)c(NCC2(CO)CC(CCc3ccccc3)C2)n1` (centres undefined), for which the EC50 is greater than 200 µM and the IC50 was determined as 4.9 µM.
Turning to `COc1ccc(C2=NC(CO)[C@H](c3ccccc3)O2)cc1OC` (some centres undefined), the EC50 is greater than 219 µM and the IC50 is greater than 219 µM.
With `OCCCN=C1N=C(Cl)/C(=C\c2ccccc2)N1`, the EC50 is greater than 200 µM and the IC50 was greater than 200 µM.
`N#Cc1cc2cc3c4c(c2oc1=O)CCCN4CCC3`: the EC50 is greater than 1.95 µM and the concentration for half-maximal inhibition (IC50) is greater than 1.95 µM.
With `COc1cccc(/C=N/[N-]C(N)=O)c1[O-].[Cu+2].[OH3+]`, the EC50 was greater than 64.6 µM and the half-maximal inhibitory concentration (IC50) was found to be 10.5 µM.
Taken in the same sequence, the figures for `CNC(=O)CCCNC(=O)CCCC(=O)OC` were greater than 200 µM and greater than 200 µM.
`Clc1cc2c(c3ncccc13)OCN(Cc1ccccc1)C2`: the EC50 is greater than 200 µM and the half-maximal inhibitory concentration (IC50) turned out to be 1.02 µM.
Consider `CN(C)CCN(C)CCN(C)C.Cc1ccc(S(=O)(=O)[O-])cc1.Cc1ccc(S(=O)(=O)[O-])cc1.[Pd+2]`, for which the EC50 is greater than 200 µM and the IC50 turned out to be 10.7 µM.
The like results for `Nc1ccc(-c2nc3ccc(Cc4ccc5nc(-c6ccc(N)cc6)oc5c4)cc3o2)cc1` were, in that order, 107 µM and greater than 200 µM.
As for `COc1ccc(/C(C#N)=C/c2ccc(N(C)CCC#N)cc2)cc1`, the EC50 is greater than 200 µM and the 50% inhibitory concentration (IC50) came out at 3.16 µM.
`N#CC1=C(N)Oc2c(ccc3cccnc23)C1c1ccccc1` (centres undefined): the EC50 was greater than 120 µM and the IC50 was found to be 1.7 µM.
Take `Fc1ccc(C2=NOC3COC4C=CC=CC4OCC23)cc1` (centres undefined): the EC50 was greater than 120 µM and the IC50 was greater than 120 µM.
For the molecule `Cc1ccc2c(c1)[nH]c(=S)n2/C=C(/C#N)c1ccc([N+](=O)[O-])cc1`, the EC50 is greater than 200 µM and the half-maximal inhibitory concentration (IC50) was greater than 200 µM.
Turning to `COC(=O)N1C=NC2C3(C)C(C)=C(C)C3(C)C21C` (centres undefined), the EC50 is greater than 263 µM and the IC50 came to 151 µM.
The like results for `C#Cc1cccc(NC(=O)/C=C\C(=O)O)c1` were, in that order, greater than 832 µM and 537 µM.
The like results for `Nc1ccn(C2OC(CO)C(O)C2Br)c(=O)n1` (centres undefined) were, in that order, greater than 200 µM and 0.0631 µM.
The like results for `Clc1ccccc1/C=C1\c2ccccc2-c2nc3ccccc3nc21` were, in that order, greater than 200 µM and greater than 200 µM.
`C[C@H]1C(=O)CC[C@]2(C)CCC(C(C)(C)O)CC12O` (some centres undefined): the outcome was inactive.
